This is an account of results in patent US20220202753A1, “METHOD OF DELIVERY OF INTRAVENOUS BACLOFEN” (Allaysis, LLC, priority 2020, published 2022).

Series [1] in a line: Study 1: two-way crossover study of oral and intravenous baclofen in healthy adult volunteers. It is filed as in vivo, human. The text has this: Study 1: Two-Way Crossover Study of Oral and Intravenous Baclofen in Healthy Adult Volunteers
The objective of the study was to characterize baclofen pharmacokinetics following oral and IV administration following low doses in healthy adult volunteers and determine the safety profile of an IV baclofen formulation.
This study was a randomized, open label, balanced, two-treatment, single dose, crossover design in normal, healthy adult human subjects under fasting conditions.
Initially, three adult volunteers received a single 3 mg IV and a 5 mg oral baclofen dose on separate study days. On the first day of drug administration in the study, one subject was given baclofen intravenously, and two subjects were given baclofen orally. On the second day of drug administration in the study, those that received baclofen orally received the TV dose and the individual who received the IV dose received the oral dose. Clinical tolerance was assessed, and plasma concentrations of baclofen were measured from the first three subjects before additional subjects were entered into the study. Nine additional adult volunteers received single 5 mg IV and 10 mg oral baclofen doses on separate days. Randomization occurred in a 1:1 ratio, such that all subjects received IV and oral baclofen on separate study days, but not necessarily in the same order. A total of twelve (12) subjects completed the clinical phase of the study. Plasma samples of 12 subjects were analyzed. However, the data from nine (9) subjects who received 5 mg IV and 10 mg oral tablet were considered for pharmacokinetic analysis and the calculation of within-subject variability. The three subjects who received 3 mg IV/5 mg oral baclofen were excluded from the pharmacokinetic analysis because more than half of the plasma concentrations were below the limit of quantitation (BLQ). Therefore, meaningful estimation of AUC was not possible for these subjects.

The nature of series [2]: Population pharmacokinetic modeling and simulation of IV baclofen infusion duration. More on the design: species or system human. Here is the method:
Plasma concentrations from cohorts 2 and 3 from Study 2 described above were used to build a two-compartment model simultaneously describing the IV and PO routes of administration. Population PK models were developed using data from cohort 3 and cohorts 2 and 3 combined (see FIGS. 4 and 5). It is worth noting that the PK parameter estimates from both study populations were similar. Two PK models with fixed absorption rate constants (Ka) of 0.6 and 0.8 hr^−1 were used. These were determined from estimates from the population pharmacokinetic model and literature.
To assess the effect of infusion duration on Cmax and AUC, simulations were performed using the population PK parameter estimates determined from the baclofen dose ranging study. Using the models described above, simulations (n=10) of 30 subjects were completed using a 20 mg oral dose and IV doses of 15 and 16 mg infused over 120, 150, 180, and 210 minutes. The simulated data were then analyzed using non-compartmental analysis and bioequivalence of the maximum concentration and area under the curve was assessed. FIGS. 10 and 11 summarize how many times of the 10 simulations that the infusion rate met bioequivalence when 16 and 15 mg doses were used, respectively.
To assess the effect of infusion duration on Cmax, a population pharmacokinetic model was developed using the observed plasma concentrations of baclofen following oral dosing of 20 mg and IV dosing of 15 mg infused over 10 and 60 minutes. Plasma concentrations of baclofen were best described by a two-compartment model, displaying a very rapid tissue distribution phase indicative of highly perfused tissues such as the liver, lung and brain and a more prolonged elimination phase. […] Using the PK model, baclofen concentrations for a 20t mg oral dose, a 15 mg IV dose infused over 180 minutes, and 16 mg IV dose infusions administered over 180 and 240 min were simulated. This allowed a determination of the effect of infusion duration on baclofen Cmax.

Series [3] in a line: Combined results of the two pilot pharmacokinetic studies (first in human and dose escalation). Particulars: for bioavailability: human, plasma. It is filed as in vivo. Here is the method: Two pilot studies were conducted to characterize baclofen pharmacokinetics and safety following intravenous administration and to access absolute bioavailability of IV and oral baclofen. These studies are described in: A Pilot Study Assessing Pharmacokinetics and Tolerability of Oral and Intravenous Baclofen in Healthy Adult Volunteers, Suresh K. Agarwal, Robert L. Kriel, James C. Cloyd, Lisa D. Coles, Lisa A. Scherkenbach, Michael H. Tobin, and Linda E. Krach, Journal of Child Neurology 2014, 30(1) 37-41; and A Randomized Dose Escalation Study of intravenous Baclofen in Healthy Volunteers: Clinical Tolerance and Pharmacokinetics, Schmitz N S, Krach L E, Coles L D, Mishra U, Agarwal S K, Cloyd J C, Kriel R L. PM&R, 2017, Volume 9(8), 743-750, both hereby incorporated by reference as though fully set forth herein. […] In order to meet bioequivalency criteria for both exposure (AUC) and peak concentration (Cmax), it was concluded that infusion times needed to be longer. To that end, modeling and simulation studies were performed to predict IV baclofen dosing regimens that would be bioequivalent to a 20 mg oral dose with respect to both AUC and Cm. These simulations formed the basis for a pivotal bioequivalence study where three different dosing regimens of baclofen IV (15 mg infused over 3 hours: 16 mg infused over 3 hours; and 16 mg infused over 4 hours, respectively) were compared to a single dose of a 20 mg oral tablet. Each of these IV regimens was bioequivalent to the 20 mg oral dosing but the 16 mg/3 hours dosing best met the bioequivalence criteria.
An important goal for adjusting the dose and duration of a baclofen infusion was to achieve bioequivalent systemic exposure (Cmax and AUC) between a single-dose baclofen IV infusion and a 20 mg oral baclofen tablet.

[4] abbreviates: 5 mg IV infused over 15 minutes vs 10 mg oral.

On to `NCC(CC(=O)O)c1ccc(Cl)cc1` (centres unmarked) [baclofen, 4-amino-3-[4-chlorophenyl] butanoic acid], for which the “AUC of IV dose compared with oral dose” value in series [1] (setting [4]) is reported as “similar”. The “Cmax of IV dose compared with oral dose” value in series [1] (setting [4]) was “higher”. Further, in series [1] (setting [4]), the “Tmax of IV dose compared with oral dose” value is listed as “earlier”. Besides, in series [1] (3 and 5 mg IV), the tolerability entry is listed as “well tolerated”. Besides, the bioavailability in series [1] (human, plasma, 10 mg oral vs 5 mg IV, n=9, fasting, read-out: estimated mean absolute bioavailability of oral baclofen) is 74%; in series [3] (oral, 45 subjects, read-out: inter-patient range of % F) it was 42 to 132%; in series [3] (oral, two pilot studies, 10- to 60-minute IV infusions, healthy volunteers, read-out: estimated mean bioavailability of oral baclofen), 74 to 85%; in series [3] (po, 11.5 mg, read-out: mean oral bioavailability), 80%; in series [3] (po, 15 mg, read-out: mean oral bioavailability), 85%; in series [3] (po, 45 subjects, read-out: mean bioavailability of oral baclofen following a single dose) it was roughly 86%. Moreover, in series [2] (population PK model estimate), the mean bioavailability was 84%. Moreover, in series [2] (two-compartment population PK model), the “population mean terminal t1/2 (β)” value is reported as “approximately 4.2 hours”. In addition, the “mean distribution t1/2” value in series [2] (two-compartment population PK model, 20 mg oral, 15 mg IV over 10 and 60 minutes) was roughly 18 min. The “ratio of an IV to an oral dose” value in series [3] (two prospective studies in healthy volunteers) is given as 80-85%.
